Source: PubChem BioAssay (NCI)
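Protocol summary: plate cells (96-well), add compound at 5 concentrations, incubate 48 h, interpolate endpoints linearly. The concentration for 50% growth inhibition is given as GI50. TGI marks complete inhibition of growth.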

Key:
Test in all cases: growth of human tumour cells (NCI), 48 h
MDA-MB-435 = system: MDA-MB-435
OVCAR-3 ovarian = system: OVCAR-3 ovarian
NCI-H460 lung = system: NCI-H460 lung
MDA-MB-231 breast = system: MDA-MB-231 breast
SNB-19 CNS = system: SNB-19 CNS
HS 578T breast = system: HS 578T breast
SF-295 CNS = system: SF-295 CNS
A498 renal = system: A498 renal
EKVX NSCLC = system: EKVX NSCLC
OVCAR-4 ovarian = system: OVCAR-4 ovarian
MALME-3M melanoma = system: MALME-3M melanoma
HOP-92 NSCLC = system: HOP-92 NSCLC
SF-268 CNS = system: SF-268 CNS
RPMI-8226 leukemia = system: RPMI-8226 leukemia
UACC-62 melanoma = system: UACC-62 melanoma
SW-620 colon = system: SW-620 colon
NCI-H23 lung = system: NCI-H23 lung
COLO 205 colon = system: COLO 205 colon
HOP-62 NSCLC = system: HOP-62 NSCLC
HCT-15 colon = system: HCT-15 colon
OVCAR-8 ovarian = system: OVCAR-8 ovarian
M14 melanoma = system: M14 melanoma
IGROV1 ovarian = system: IGROV1 ovarian
NCI-H522 lung = system: NCI-H522 lung
SR leukemia = system: SR leukemia
NCI/ADR-RES ovarian = system: NCI/ADR-RES ovarian
NCI-H226 lung = system: NCI-H226 lung
SK-OV-3 ovarian = system: SK-OV-3 ovarian
A549 NSCLC = system: A549 NSCLC
K-562 leukemia = system: K-562 leukemia
786-0 renal = system: 786-0 renal
PC-3 prostate = system: PC-3 prostate
HT29 colon = system: HT29 colon
MOLT-4 leukemia = system: MOLT-4 leukemia
UO-31 renal = system: UO-31 renal
MCF7 breast = system: MCF7 breast
HCC-2998 colon = system: HCC-2998 colon
UACC-257 melanoma = system: UACC-257 melanoma
MDA-MB-468 breast = system: MDA-MB-468 breast
HCT-116 colon = system: HCT-116 colon
SK-MEL-28 melanoma = system: SK-MEL-28 melanoma
SN12C renal = system: SN12C renal
BT-549 breast = system: BT-549 breast
T-47D breast = system: T-47D breast
ACHN renal = system: ACHN renal
LOX IMVI melanoma = system: LOX IMVI melanoma
KM12 colon = system: KM12 colon
U251 CNS = system: U251 CNS
TK-10 renal = system: TK-10 renal
DU-145 prostate = system: DU-145 prostate
SNB-75 CNS = system: SNB-75 CNS
RXF 393 renal = system: RXF 393 renal
CCRF-CEM leukemia = system: CCRF-CEM leukemia
SF-539 CNS = system: SF-539 CNS
SK-MEL-2 melanoma = system: SK-MEL-2 melanoma
OVCAR-5 ovarian = system: OVCAR-5 ovarian
HL-60(TB) leukemia = system: HL-60(TB) leukemia
SK-MEL-5 melanoma = system: SK-MEL-5 melanoma
CAKI-1 renal = system: CAKI-1 renal

O=C1Nc2cc(-c3ccc(NS(=O)(=O)c4ccc(C(F)(F)F)cc4)cc3)ccc2/C1=C/c1ccc[nH]1
GI50 (MDA-MB-435): 1860 nM | TGI (MDA-MB-435): 3950 nM | GI50 (OVCAR-3 ovarian): 1430 nM | TGI (OVCAR-3 ovarian): 2920 nM | GI50 (NCI-H460 lung): 437 nM | TGI (NCI-H460 lung): 1770 nM | GI50 (MDA-MB-231 breast): 2280 nM | TGI (MDA-MB-231 breast): 8290 nM | GI50 (SNB-19 CNS): 2530 nM | TGI (SNB-19 CNS): 11300 nM | GI50 (HS 578T breast): 1960 nM | TGI (HS 578T breast): 10300 nM | GI50 (SF-295 CNS): 2040 nM | TGI (SF-295 CNS): 4670 nM | GI50 (A498 renal): 1990 nM | TGI (A498 renal): 7780 nM | GI50 (EKVX NSCLC): 123 nM | TGI (EKVX NSCLC): 4130 nM | GI50 (OVCAR-4 ovarian): 1100 nM | TGI (OVCAR-4 ovarian): 7330 nM | GI50 (MALME-3M melanoma): 3050 nM | TGI (MALME-3M melanoma): 13600 nM | GI50 (HOP-92 NSCLC): 1100 nM | TGI (HOP-92 NSCLC): 3790 nM | GI50 (SF-268 CNS): 1720 nM | TGI (SF-268 CNS): 3860 nM | GI50 (RPMI-8226 leukemia): 1330 nM | TGI (RPMI-8226 leukemia): 4250 nM | GI50 (UACC-62 melanoma): 2130 nM | TGI (UACC-62 melanoma): 9730 nM | GI50 (SW-620 colon): 1870 nM | TGI (SW-620 colon): 3680 nM | GI50 (NCI-H23 lung): 1070 nM | TGI (NCI-H23 lung): 2830 nM | GI50 (COLO 205 colon): 2420 nM | TGI (COLO 205 colon): 8250 nM | GI50 (HOP-62 NSCLC): 1660 nM | TGI (HOP-62 NSCLC): 4700 nM | GI50 (HCT-15 colon): 1420 nM | TGI (HCT-15 colon): 3260 nM | GI50 (OVCAR-8 ovarian): 1910 nM | TGI (OVCAR-8 ovarian): 4070 nM | GI50 (M14 melanoma): 3110 nM | TGI (M14 melanoma): 13000 nM | GI50 (IGROV1 ovarian): 3310 nM | TGI (IGROV1 ovarian): 15000 nM | GI50 (NCI-H522 lung): 1440 nM | TGI (NCI-H522 lung): 3320 nM | GI50 (SR leukemia): 1970 nM | TGI (SR leukemia): 7000 nM | GI50 (NCI/ADR-RES ovarian): 2590 nM | TGI (NCI/ADR-RES ovarian): 8600 nM | GI50 (NCI-H226 lung): 1100 nM | TGI (NCI-H226 lung): 6790 nM | GI50 (SK-OV-3 ovarian): 2200 nM | TGI (SK-OV-3 ovarian): 11600 nM | GI50 (A549 NSCLC): 1310 nM | TGI (A549 NSCLC): 2920 nM | GI50 (K-562 leukemia): 2480 nM | TGI (K-562 leukemia): 11000 nM | GI50 (786-0 renal): 2550 nM | TGI (786-0 renal): 6540 nM | GI50 (PC-3 prostate): 1570 nM | TGI (PC-3 prostate): 4830 nM | GI50 (HT29 colon): 2210 nM | TGI (HT29 colon): 5140 nM | GI50 (MOLT-4 leukemia): 2490 nM | TGI (MOLT-4 leukemia): 10800 nM | GI50 (UO-31 renal): 1510 nM | TGI (UO-31 renal): 10300 nM | GI50 (MCF7 breast): 81.8 nM | TGI (MCF7 breast): 1470 nM | GI50 (HCC-2998 colon): 1910 nM | TGI (HCC-2998 colon): 4920 nM | GI50 (UACC-257 melanoma): 2390 nM | TGI (UACC-257 melanoma): 7330 nM | GI50 (MDA-MB-468 breast): 31.1 nM | TGI (MDA-MB-468 breast): 309 nM | GI50 (HCT-116 colon): 1820 nM | TGI (HCT-116 colon): 3460 nM | GI50 (SK-MEL-28 melanoma): 2260 nM | TGI (SK-MEL-28 melanoma): 5680 nM | GI50 (SN12C renal): 1590 nM | TGI (SN12C renal): 3170 nM | GI50 (BT-549 breast): 1960 nM | TGI (BT-549 breast): 5540 nM | GI50 (T-47D breast): 230 nM | TGI (T-47D breast): 3860 nM | GI50 (ACHN renal): 2190 nM | TGI (ACHN renal): 5310 nM | GI50 (LOX IMVI melanoma): 1630 nM | TGI (LOX IMVI melanoma): 2980 nM | GI50 (KM12 colon): 1940 nM | TGI (KM12 colon): 7830 nM | GI50 (U251 CNS): 1610 nM | TGI (U251 CNS): 3120 nM | GI50 (TK-10 renal): 1270 nM | TGI (TK-10 renal): 6710 nM | GI50 (DU-145 prostate): 1870 nM | TGI (DU-145 prostate): 4000 nM | GI50 (SNB-75 CNS): 2290 nM | TGI (SNB-75 CNS): 13300 nM | GI50 (RXF 393 renal): 1960 nM | TGI (RXF 393 renal): 4370 nM | GI50 (CCRF-CEM leukemia): 2270 nM | TGI (CCRF-CEM leukemia): 6820 nM | GI50 (SF-539 CNS): 1430 nM | TGI (SF-539 CNS): 3260 nM | GI50 (SK-MEL-2 melanoma): 3140 nM | TGI (SK-MEL-2 melanoma): 12200 nM | GI50 (OVCAR-5 ovarian): 1800 nM | TGI (OVCAR-5 ovarian): 7060 nM | GI50 (HL-60(TB) leukemia): 2900 nM | TGI (HL-60(TB) leukemia): 10700 nM | GI50 (SK-MEL-5 melanoma): 4130 nM | TGI (SK-MEL-5 melanoma): 15600 nM | GI50 (CAKI-1 renal): 2570 nM | TGI (CAKI-1 renal): 11100 nM

C#C[C@]1(O)CC[C@H]2[C@@H]3CC=C4c5sc(Nc6cc(Cl)ccc6OC)nc5CC[C@]4(C)[C@H]3CC[C@@]21C
GI50 (MDA-MB-468 breast): 1690 nM | TGI (MDA-MB-468 breast): 4650 nM
